Data as given in ChEMBL document CHEMBL5465560, “Selectivity Literature for EUbOPEN Chemogenomic Library” (2024).

Columns and labels:
[1] = target: Tyrosine-protein kinase Fes/Fps (Homo sapiens) (UniProt P07332); assay: Selectivity interaction (KinomeScan (DiscoverX)) EUB0000229b FES; conditions: at 10 µM
[2] = target: Cysteinyl leukotriene receptor 1 (Homo sapiens) (UniProt Q9Y271); assay: Selectivity interaction (Eurofins CEREP Diversity Profile (receptors and ion channels)) EUB0000279b CYSLTR1; conditions: at 10 µM
[3] = target: Focal adhesion kinase 1 (Homo sapiens, UniProt Q05397); assay: Selectivity interaction (ActivX KiNativ screen (ex vivo kinase selectivity in human PBMCs)) EUB0001619a PTK2; type: cell-based; conditions: PBMC, at 1 µM
[4] = target: T1, cGMP-dependent protein kinase 1 (Homo sapiens) (UniProt Q13976); assay: Selectivity interaction (KinomeScan (DiscoverX)) EUB0001619a PRKG1; conditions: at 1 µM
T1 sequence (whole entry): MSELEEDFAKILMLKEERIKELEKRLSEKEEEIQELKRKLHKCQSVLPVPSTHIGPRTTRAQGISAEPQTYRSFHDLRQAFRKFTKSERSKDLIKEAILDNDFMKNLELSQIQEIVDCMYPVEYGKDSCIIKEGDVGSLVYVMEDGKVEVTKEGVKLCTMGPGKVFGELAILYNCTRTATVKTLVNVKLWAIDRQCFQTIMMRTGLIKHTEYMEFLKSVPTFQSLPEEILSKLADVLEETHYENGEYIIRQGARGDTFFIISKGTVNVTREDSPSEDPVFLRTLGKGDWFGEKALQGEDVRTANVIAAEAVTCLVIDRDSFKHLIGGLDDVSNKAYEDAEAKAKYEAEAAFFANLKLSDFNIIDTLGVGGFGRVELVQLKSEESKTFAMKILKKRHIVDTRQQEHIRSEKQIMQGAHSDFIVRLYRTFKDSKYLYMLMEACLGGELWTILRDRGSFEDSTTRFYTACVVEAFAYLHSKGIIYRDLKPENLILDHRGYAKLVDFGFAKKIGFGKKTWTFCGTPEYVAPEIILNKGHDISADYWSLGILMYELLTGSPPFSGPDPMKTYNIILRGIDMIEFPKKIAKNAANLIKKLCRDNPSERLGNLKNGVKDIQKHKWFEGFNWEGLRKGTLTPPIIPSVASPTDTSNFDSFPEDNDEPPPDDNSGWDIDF

[5] = target: Mitogen-activated protein kinase 3 (Homo sapiens, UniProt P27361); assay: Selectivity interaction (KinomeScan (DiscoverX)) EUB0000607a MAPK3; conditions: at 10 µM
[6] = target: T2, Serine/threonine-protein kinase D2 (Homo sapiens) (UniProt Q9BZL6); assay: Selectivity interaction (ActivX KiNativ screen (kinase selectivity in THP-1 cell lysates)) EUB0000639a PRKD2; type: subcellular; conditions: lysate, at 0.04 µM
T2 sequence (whole entry): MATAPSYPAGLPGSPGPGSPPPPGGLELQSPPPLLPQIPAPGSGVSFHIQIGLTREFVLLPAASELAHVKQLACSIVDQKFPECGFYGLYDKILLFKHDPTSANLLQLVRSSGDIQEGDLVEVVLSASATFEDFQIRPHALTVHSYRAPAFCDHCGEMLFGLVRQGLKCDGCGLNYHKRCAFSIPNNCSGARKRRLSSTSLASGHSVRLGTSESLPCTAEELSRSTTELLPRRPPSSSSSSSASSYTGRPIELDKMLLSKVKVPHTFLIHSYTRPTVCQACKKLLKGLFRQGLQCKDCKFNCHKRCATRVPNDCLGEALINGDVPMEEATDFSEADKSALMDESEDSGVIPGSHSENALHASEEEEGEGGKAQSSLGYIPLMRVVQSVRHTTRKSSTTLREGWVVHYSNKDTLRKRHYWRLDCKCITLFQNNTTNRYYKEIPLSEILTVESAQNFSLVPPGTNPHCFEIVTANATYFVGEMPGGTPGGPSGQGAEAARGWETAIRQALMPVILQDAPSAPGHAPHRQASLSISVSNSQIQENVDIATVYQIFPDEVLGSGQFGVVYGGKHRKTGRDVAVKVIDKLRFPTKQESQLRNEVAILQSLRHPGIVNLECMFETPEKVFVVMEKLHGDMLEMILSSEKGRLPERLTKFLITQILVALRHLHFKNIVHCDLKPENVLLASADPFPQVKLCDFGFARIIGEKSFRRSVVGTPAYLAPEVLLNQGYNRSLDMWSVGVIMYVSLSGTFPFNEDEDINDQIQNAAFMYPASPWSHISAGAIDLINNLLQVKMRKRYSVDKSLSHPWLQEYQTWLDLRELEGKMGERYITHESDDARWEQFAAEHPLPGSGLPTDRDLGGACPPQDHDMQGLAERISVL

[7] = target: Ephrin type-A receptor 4 (Homo sapiens, UniProt P54764); conditions: at 10 µM
[8] = target: Activin receptor type-2B (Homo sapiens) (UniProt Q13705); assay: Selectivity interaction (KinomeScan (DiscoverX)) EUB0000092b ACVR2B; conditions: at 10 µM
[9] = target: T3, Dual specificity protein kinase TTK (Homo sapiens) (UniProt P33981); assay: Selectivity interaction (Ambit KINOMEscan and KiNATiv profiling in Jurkat cells) EUB0000090b TTK; type: cell-based; conditions: at 1 µM
T3 sequence (whole entry): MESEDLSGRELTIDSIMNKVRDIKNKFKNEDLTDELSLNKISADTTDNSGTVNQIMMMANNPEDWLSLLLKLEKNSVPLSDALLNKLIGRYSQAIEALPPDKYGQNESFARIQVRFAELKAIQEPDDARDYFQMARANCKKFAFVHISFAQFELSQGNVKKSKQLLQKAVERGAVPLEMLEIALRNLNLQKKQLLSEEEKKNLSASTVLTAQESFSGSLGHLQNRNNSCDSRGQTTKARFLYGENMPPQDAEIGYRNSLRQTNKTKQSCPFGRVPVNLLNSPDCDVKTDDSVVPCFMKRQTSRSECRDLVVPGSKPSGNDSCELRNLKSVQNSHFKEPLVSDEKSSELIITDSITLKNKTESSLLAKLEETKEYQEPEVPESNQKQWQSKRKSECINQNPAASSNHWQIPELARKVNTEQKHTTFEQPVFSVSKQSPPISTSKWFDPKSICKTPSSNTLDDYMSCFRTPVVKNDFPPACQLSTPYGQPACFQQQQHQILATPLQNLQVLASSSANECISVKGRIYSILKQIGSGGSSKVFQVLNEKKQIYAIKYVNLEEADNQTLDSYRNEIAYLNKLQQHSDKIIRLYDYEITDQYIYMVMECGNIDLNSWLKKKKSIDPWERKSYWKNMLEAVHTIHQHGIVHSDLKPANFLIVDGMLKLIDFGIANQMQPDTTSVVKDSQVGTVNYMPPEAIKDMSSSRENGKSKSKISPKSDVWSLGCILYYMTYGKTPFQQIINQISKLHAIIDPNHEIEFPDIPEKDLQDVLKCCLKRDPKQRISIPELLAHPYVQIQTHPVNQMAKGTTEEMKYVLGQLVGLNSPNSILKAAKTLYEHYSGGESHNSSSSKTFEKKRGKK

Chain of Cysteinyl leukotriene receptor 1 (Homo sapiens) (Q9Y271 whole entry): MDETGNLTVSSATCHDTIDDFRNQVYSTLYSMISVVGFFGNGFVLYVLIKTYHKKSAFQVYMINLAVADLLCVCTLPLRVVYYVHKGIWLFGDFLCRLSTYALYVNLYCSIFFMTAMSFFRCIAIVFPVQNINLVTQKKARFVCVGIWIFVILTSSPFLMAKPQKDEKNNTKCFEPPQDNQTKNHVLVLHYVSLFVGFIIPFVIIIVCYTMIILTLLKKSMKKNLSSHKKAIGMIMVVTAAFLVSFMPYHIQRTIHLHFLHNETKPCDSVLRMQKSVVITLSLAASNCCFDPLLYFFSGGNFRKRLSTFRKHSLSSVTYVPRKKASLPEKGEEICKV
Chain of Tyrosine-protein kinase Fes/Fps (Homo sapiens) (P07332 whole entry): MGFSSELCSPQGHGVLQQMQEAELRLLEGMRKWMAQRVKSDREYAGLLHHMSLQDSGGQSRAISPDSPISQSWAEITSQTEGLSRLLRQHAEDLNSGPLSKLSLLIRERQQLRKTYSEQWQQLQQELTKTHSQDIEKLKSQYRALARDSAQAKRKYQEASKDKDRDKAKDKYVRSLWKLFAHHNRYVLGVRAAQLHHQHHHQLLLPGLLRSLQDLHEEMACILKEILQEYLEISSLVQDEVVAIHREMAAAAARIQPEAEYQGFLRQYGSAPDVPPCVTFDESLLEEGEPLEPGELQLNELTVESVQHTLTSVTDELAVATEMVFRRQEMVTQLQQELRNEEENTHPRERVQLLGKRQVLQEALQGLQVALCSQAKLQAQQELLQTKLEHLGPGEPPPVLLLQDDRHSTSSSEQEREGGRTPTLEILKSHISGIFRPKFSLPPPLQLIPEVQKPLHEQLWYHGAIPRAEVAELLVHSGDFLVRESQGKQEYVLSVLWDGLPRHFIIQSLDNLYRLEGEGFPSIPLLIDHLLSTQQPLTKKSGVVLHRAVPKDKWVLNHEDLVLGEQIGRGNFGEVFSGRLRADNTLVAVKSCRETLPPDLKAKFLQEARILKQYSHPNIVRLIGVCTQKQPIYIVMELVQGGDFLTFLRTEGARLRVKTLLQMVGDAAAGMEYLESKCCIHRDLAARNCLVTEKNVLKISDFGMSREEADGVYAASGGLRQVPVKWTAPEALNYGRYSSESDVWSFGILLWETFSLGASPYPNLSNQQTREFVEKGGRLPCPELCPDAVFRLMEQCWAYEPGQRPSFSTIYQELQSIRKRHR
Chain of Activin receptor type-2B (Homo sapiens) (Q13705 whole entry): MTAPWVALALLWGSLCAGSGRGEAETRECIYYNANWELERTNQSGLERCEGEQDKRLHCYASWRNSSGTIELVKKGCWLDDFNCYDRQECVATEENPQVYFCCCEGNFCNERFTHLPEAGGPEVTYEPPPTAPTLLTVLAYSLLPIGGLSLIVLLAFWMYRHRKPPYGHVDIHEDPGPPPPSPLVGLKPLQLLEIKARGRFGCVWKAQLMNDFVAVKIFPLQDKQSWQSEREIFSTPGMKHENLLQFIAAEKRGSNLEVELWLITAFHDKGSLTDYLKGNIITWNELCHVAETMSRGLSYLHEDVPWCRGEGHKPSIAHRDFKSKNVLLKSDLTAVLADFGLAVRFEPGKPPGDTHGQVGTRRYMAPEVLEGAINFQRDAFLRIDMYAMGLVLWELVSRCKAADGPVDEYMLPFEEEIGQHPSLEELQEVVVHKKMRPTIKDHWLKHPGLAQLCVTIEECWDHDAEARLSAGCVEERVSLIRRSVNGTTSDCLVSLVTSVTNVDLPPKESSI
Chain of Mitogen-activated protein kinase 3 (P27361 whole entry): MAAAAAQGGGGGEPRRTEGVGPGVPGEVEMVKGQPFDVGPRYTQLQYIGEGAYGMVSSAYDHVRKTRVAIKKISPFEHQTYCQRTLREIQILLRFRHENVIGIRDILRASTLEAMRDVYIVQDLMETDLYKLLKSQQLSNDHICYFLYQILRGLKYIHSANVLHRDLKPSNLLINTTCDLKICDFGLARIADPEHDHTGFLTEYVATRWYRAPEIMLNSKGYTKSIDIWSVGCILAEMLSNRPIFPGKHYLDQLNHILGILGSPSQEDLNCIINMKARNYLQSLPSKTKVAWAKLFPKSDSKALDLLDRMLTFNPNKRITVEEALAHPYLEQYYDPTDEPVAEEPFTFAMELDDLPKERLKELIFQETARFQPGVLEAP
Chain of Ephrin type-A receptor 4 (P54764 whole entry): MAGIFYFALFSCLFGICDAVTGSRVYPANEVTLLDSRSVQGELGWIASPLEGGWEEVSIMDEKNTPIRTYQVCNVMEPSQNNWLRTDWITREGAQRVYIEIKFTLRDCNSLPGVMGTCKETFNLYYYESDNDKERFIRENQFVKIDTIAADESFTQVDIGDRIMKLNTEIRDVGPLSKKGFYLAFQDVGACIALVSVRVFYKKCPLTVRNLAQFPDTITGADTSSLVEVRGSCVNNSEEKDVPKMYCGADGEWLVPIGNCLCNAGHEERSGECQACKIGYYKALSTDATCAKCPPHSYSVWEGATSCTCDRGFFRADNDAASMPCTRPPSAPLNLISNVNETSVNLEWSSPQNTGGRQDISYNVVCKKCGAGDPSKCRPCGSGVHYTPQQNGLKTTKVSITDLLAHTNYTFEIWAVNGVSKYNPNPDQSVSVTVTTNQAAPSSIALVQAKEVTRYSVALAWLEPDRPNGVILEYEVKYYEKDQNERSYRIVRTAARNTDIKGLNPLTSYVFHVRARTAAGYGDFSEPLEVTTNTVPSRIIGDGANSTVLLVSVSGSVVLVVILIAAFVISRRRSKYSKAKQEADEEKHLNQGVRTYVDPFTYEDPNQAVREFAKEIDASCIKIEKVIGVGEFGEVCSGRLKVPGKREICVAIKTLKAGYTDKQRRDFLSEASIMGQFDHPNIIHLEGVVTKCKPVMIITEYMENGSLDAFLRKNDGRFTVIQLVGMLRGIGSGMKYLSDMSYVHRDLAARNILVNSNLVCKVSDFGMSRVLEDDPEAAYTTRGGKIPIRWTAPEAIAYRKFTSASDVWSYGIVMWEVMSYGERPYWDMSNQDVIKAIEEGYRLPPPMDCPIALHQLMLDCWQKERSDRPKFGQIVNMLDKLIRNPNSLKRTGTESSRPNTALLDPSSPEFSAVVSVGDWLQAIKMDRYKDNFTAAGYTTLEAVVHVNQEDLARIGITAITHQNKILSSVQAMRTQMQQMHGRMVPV
Chain of Focal adhesion kinase 1 (Q05397 2-1052 limits assumed): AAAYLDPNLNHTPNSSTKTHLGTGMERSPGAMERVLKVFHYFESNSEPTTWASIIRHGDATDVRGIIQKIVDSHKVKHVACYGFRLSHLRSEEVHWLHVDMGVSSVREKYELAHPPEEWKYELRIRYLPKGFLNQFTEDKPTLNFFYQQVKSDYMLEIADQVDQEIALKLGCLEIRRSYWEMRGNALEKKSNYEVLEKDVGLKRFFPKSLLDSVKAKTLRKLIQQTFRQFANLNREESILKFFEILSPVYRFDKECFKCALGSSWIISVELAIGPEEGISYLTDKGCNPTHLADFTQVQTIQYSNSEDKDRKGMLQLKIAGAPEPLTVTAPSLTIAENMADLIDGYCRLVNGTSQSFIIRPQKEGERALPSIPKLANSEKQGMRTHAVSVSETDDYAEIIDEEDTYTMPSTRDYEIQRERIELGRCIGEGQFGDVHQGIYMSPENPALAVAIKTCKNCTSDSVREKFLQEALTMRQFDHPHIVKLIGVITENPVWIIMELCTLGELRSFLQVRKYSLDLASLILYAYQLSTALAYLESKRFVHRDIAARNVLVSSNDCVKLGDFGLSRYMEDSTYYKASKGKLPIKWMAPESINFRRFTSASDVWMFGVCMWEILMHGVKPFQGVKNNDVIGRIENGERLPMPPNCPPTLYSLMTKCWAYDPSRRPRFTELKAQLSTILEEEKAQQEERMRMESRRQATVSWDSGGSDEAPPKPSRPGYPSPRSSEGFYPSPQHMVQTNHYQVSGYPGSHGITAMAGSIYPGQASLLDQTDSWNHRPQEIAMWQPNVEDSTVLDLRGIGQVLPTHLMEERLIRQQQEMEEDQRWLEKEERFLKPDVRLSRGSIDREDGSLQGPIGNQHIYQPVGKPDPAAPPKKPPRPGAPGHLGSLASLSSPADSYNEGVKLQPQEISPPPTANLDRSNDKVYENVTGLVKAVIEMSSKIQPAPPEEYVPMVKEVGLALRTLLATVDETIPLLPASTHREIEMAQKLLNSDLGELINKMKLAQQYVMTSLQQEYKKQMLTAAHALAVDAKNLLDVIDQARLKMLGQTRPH

With `COc1cc(N(C)c2ccnc3ccc(C(F)(F)F)cc23)cc(OC)c1OC` the % binding [1] was 100%.

`CC(=O)c1cc(-c2ccccc2OCC2CC2)c2ncccn12` was tested, and the % of control [2] was 103%.

For `N#Cc1cccc(-c2c[nH]c3ncnc(N4CCOCC4)c23)c1`, the % of inhibition [3] was 11% and the % of control [4] was 99%.

`CNC(=O)Nc1ccc(-c2nc(N3CC4CCC(C3)O4)c3cnn(C4CCC5(CC4)OCCO5)c3n2)cc1` was tested, and the % of control [5] was 97%.

`CC[C@@H]1[C@H](F)C(=O)N[C@@H]1COc1nccc2cc(C(N)=O)c(OC)cc12` [ZIMLOVISERTIB] showed a % of inhibition [6] of -3.5%.

Compound `CCN(CC)CCCCNc1ncc2cc(-c3cc(OC)cc(OC)c3)c(NC(=O)NC(C)(C)C)nc2n1` has a % of control [7] of 100%.

`CCC(=O)N1CCN(c2ccc(-n3c(=O)ccc4cnc5ccc(-c6cnc7ccccc7c6)cc5c43)cc2C(F)(F)F)CC1` gave a % of control [8] of 42%.

With `CN(C)C/C=C/C(=O)Nc1ccc(C(=O)N2CCCC(Nc3ncc(Cl)c(-c4c[nH]c5ccccc45)n3)C2)cc1` (centres undefined) the % of control [9] was 81%.
